Measurements taken from paper PMC11013424, “Evaluation of the Lipophilicity of Angularly Condensed Diquino- and Quinonaphthothiazines as Potential Candidates for New Drugs” (Molecules, 2024).

How the values were obtained:
[1] = tested on: IFNβ expression and IFNβ-dependent downstream genes and proteins; design: method as in doi:10.1016/j.molstruc.2023.135700, PMID 30981160, doi:10.1016/j.molstruc.2015.06.046, PMID 25750501, doi:10.1016/j.molstruc.2023.136856; conditions: cited from earlier work
[2] = design: method as in doi:10.1016/j.molstruc.2023.135700, PMID 30981160, doi:10.1016/j.molstruc.2015.06.046, PMID 25750501, doi:10.1016/j.molstruc.2023.136856; conditions: cited from earlier work
[3] = design: method as in doi:10.1016/j.molstruc.2023.136856; conditions: cited from earlier work
alpha-glucosidase = tested on: alpha-glucosidase; design: method as in doi:10.1016/j.molstruc.2023.136856; conditions: cited from earlier work
[4] = RP-TLC determination of lipophilicity (RM0, logPTLC); conditions: for RM0: RP-18 plate, acetone/TRIS buffer pH 7.4, extrapolated to zero acetone; for b (slope) / -b: slope of RM = RM0 + b·C; for b (slope): acetone/TRIS buffer pH 7.4; for LogPTLC: from RM0 by calibration logPTLC = 1.2838 RM0 + 0.2138; for -b: standards I–V;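 on all read-outs here: silica gel 60 RP-18 F254S plates, TRIS buffer of ionic strength 0.2 M, detection under UV at 254 nm, RF averaged over three or more runs, C in % v/v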
Experimental: RP-TLC was carried out on a silica gel 60 RP-18 F254S 10 cm × 10 cm RP-TLC plate (Merck, Darmstad, Germany). The mobile phase was acetone and an aqueous TRIS (tris(hydroxymethyl)-aminomethane) buffer pH = 7.4 (ionic strength 0.2 M) to meet physiological conditions. […] Angularly condensed diquino- and quinonaphthothiazinethiazines (1–21) and the standards I–V were dissolved in ethanol (2.0 mg/mL). […] Before developing the plates, the chromatographic chambers were saturated with the mobile phase for 0.5 h. After developing the plates and drying in a stream of air, the chromatograms were observed under UV light at λ = 254 nm. At least, three chromatograms were developed for each soluble–solvent combination, and the RF values were averaged. […] The RM0 values were obtained by extrapolation to a zero acetone concentration using the equation RM = RM0 + bC, where C is the concentration (%, v/v) of acetone in the mobile phase.

alpha-amylase = tested on: alpha-amylase; design: method as in doi:10.1016/j.molstruc.2023.136856; conditions: cited from earlier work
[5] = design: method as in doi:10.1016/j.molstruc.2023.136856; conditions: cited from earlier work; remark: listed apart in the source
[6] = design: method as in doi:10.1016/j.molstruc.2023.136856; conditions: cited from earlier work; remark: listed apart in the source

Molecule | RM0 [4] | b (slope) [4] | other results
6-chloro-ethylureidoethyldiquinothiazine | – | – | inhibition of IFNβ expression and IFNβ-dependent downstream genes and proteins [1]: inhibitory activity; activity in in vivo models [2]: suppressive and anti-inflammatory activities
c1ccc2nc3c(cc2c1)Sc1c(cnc2ccccc12)N3 [Compound 1, 7H-diquino[3,2-b;3′,4′-e]thiazine] | 3.15 | −0.0383 | lipid peroxidation effect [3]: strong; alpha-glucosidase activity inhibition (alpha-glucosidase): inhibited; alpha-amylase activity inhibition (alpha-amylase): inhibited; ion chelating effect [5]: strong; free radical scavenging effect [6]: strong
CN1c2cnc3ccccc3c2Sc2cc3ccccc3nc21 [Compound 2] | 4.14 | −0.0503 | –
C=CCN1c2cnc3ccccc3c2Sc2cc3ccccc3nc21 [Compound 3] | 4.30 | −0.058 | –
C#CCN1c2cnc3ccccc3c2Sc2cc3ccccc3nc21 [Compound 4] | 3.35 | −0.0383 | –
c1ccc2nc3c(cc2c1)Sc1c(ccc2ncccc12)N3 [Compound 5] | 3.72 | −0.0459 | –
CN1c2ccc3ncccc3c2Sc2cc3ccccc3nc21 [Compound 6] | 4.24 | −0.0582 | –
C=CCN1c2ccc3ncccc3c2Sc2cc3ccccc3nc21 [Compound 7] | 4.46 | −0.0534 | –
C#CCN1c2ccc3ncccc3c2Sc2cc3ccccc3nc21 [Compound 8] | 3.96 | −0.0539 | LogPTLC [4]: 5.34
c1ccc2nc3c(cc2c1)Sc1ccc2ncccc2c1N3 [Compound 9] | 3.69 | −0.0498 | lipid peroxidation effect [3]: strong; alpha-glucosidase activity inhibition (alpha-glucosidase): inhibited; alpha-amylase activity inhibition (alpha-amylase): inhibited; ion chelating effect [5]: strong; free radical scavenging effect [6]: strong
CN1c2nc3ccccc3cc2Sc2ccc3ncccc3c21 [Compound 10] | 4.37 | −0.0540 | –
c1ccc2nc3c(cc2c1)Sc1ccc2cccnc2c1N3 [Compound 11] | 3.48 | −0.0462 | lipid peroxidation effect [3]: strong; alpha-glucosidase activity inhibition (alpha-glucosidase): inhibited; LogPTLC [4]: 4.72; alpha-amylase activity inhibition (alpha-amylase): inhibited; ion chelating effect [5]: strong; free radical scavenging effect [6]: strong
CN1c2nc3ccccc3cc2Sc2ccc3cccnc3c21 [Compound 12] | 4.21 | −0.0576 | –
C=CCN1c2nc3ccccc3cc2Sc2ccc3cccnc3c21 [Compound 13] | – | −0.0478 | –
c1ccc2nc3c(cc2c1)Sc1c(ccc2ccccc12)N3 [Compound 14] | 4.24 | −0.0573 | LogPTLC [4]: 5.69
CN1c2ccc3ccccc3c2Sc2cc3ccccc3nc21 [Compound 15] | 4.49 | −0.0527 | –
C#CCN1c2ccc3ccccc3c2Sc2cc3ccccc3nc21 [Compound 17] | 4.29 | −0.0529 | LogPTLC [4]: 5.76
c1ccc2nc3c(cc2c1)Sc1ccc2ccccc2c1N3 [Compound 18] | 3.81 | −0.0484 | –
CN1c2nc3ccccc3cc2Sc2ccc3ccccc3c21 [Compound 19] | 4.18 | −0.0538 | LogPTLC [4]: 5.58
C=CCN1c2nc3ccccc3cc2Sc2ccc3ccccc3c21 [Compound 20, 14-allylquinonaphthothiazine] | 4.34 | −0.0548 | –
C#CCN1c2nc3ccccc3cc2Sc2ccc3ccccc3c21 [Compound 21] | 4.09 | −0.0507 | –
CC(=O)Nc1ccccc1 [Standard I, acetanilide, reference compound] | 0.78 | – | LogPTLC [4]: 1.21; -b [4]: 0.0162
O=C(O)c1ccccc1 [Standard II, benzoic acid, reference compound] | 1.16 | – | -b [4]: 0.0247
Clc1ccc(C(c2ccc(Cl)cc2)C(Cl)(Cl)Cl)cc1 [Standard V, p,p’-DDT, reference compound] | 4.69 | – | LogPTLC [4]: 6.24; -b [4]: 0.0564
